The subject of data set [1] is HO HCU mice. The experiment in a line: Hepatic metabolomic analysis / hepatic 5-methylTHF in HO HCU mice. It counts as in vivo, mouse. From the text:
As illustrated in one example, see FIG. 2, HCU (HO) induced a significant accumulation of hepatic 5-methyl-THF which by sequestering one carbon units had the potential to decrease the available pool of THF available to the betaine pathway for lowering Hcy. FIG. 2 illustrates an example of hepatic metabolomic analysis of HO and WT controls compared to an HO mouse treated with betaine. Comparative hepatic metabolomic analysis of HO mice and WT controls illustrated about a 10-fold accumulation in the MTHFR product 5-MeTHF. Betaine treatment alone reduced 5-MeTHF by about 15-25%. Data illustrated in FIG. 2 was derived from the livers of 8 (4 male, 4 female) individual HO or WT or HO Betaine mice per group. Betaine was given at 2% w/v in drinking water given ad libitum. P<0.0001 vs WT.
A comparative reference data set was generated for these mice by examining plasma levels of tHcy, methionine, cysteine, serine, glycine, dimethylglycine, methylglycine (MG, SAM and SAH). In brief, determination of plasma levels of amino acids relevant to the methionine cycle were determined using methods similar to those described in Stabler et al., Blood. 81 (1993) 3404-3413, incorporated in its entirety herein. Determination of hepatic 5-methylTHF was performed by liquid chromatography-tandem mass spectrometry using methods similar to those described in Witham et al., PLoS One. 8 (2013) e77923, incorporated in its entirety herein. The global metabolomic analysis of methionine and folate cycle related metabolites was carried out by Metabolon, Inc. Briefly, sample preparation was performed utilizing the automated MicroLab STAR® system. Sample preparation was performed using a proprietary series of organic and aqueous extractions to remove the protein fraction while allowing maximum recovery of small molecules. The resulting extract was divided into two fractions: one for analysis by liquid chromatography and one for analysis by gas chromatography. Each sample was then frozen and dried under vacuum. The LC/mass spectrometer portion of the platform was based on a Waters ACQUITY UPLC and a Thermo-Finnigan LTQ mass spectrometer, which consisted of an electrospray ionization source and linear ion-trap mass analyzer. Samples were analyzed on a Thermo-Finnigan Trace DSQ fast-scanning single-quadrupole mass spectrometer using electron impact ionization. Identification of known chemical entities was based on comparison to library entries of authenticated standards. Tissue polyamines putrescine, spermidine and spermine and 5-methylthioadenosine (MTA) were determined by liquid chromatography-tandem mass spectrometry using methods similar to those described in Stevens et al., J Chromatogr A 1217 (2010) 3282-3288, incorporated in its entirety herein.

The subject of a further data set is SAHH. Kind of data set: Western blotting of hepatic SAHH expression. The class given is in vivo, mouse. The conditions noted are these: HO mice, 30 g/l in drinking water ad libitum, one week. The procedure: (§1) To investigate the effects of these treatments upon the hepatic regulatory changes in enzyme expression induced by HCU, the human transgenic HO mouse model of HCU was used. In brief, experimental groups consisting of 8 HO mice on a C57BL/6J background and 8 C57BL/6J WT littermate control mice bred in house were used. Mice in both groups were male and aged between 3 and 4 months. Except where otherwise stated, all mice were maintained on standard chow. All diets were administered using a paired-feeding design to ensure isocaloric intake between all experimental groups and body weights were measured once per week. There was no significant difference in body weight between mice in any of the experimental groups. Betaine and taurine were in this example, both administered by dissolving these compounds in drinking water at 30 g/l (2% or 3% w/v) and were supplied ad libitum for one week. Treatment water was replenished twice per week.
(§2) Western blotting analysis of SAHH, MTHFR and SHMT2 expression was performed in liver samples from HO mice in the presence and absence of betaine or taurine treatment.

For another data set, the system named is SHMT2. Kind of data set: Western blotting of hepatic SHMT2 expression. The class given is in vivo, mouse. Particulars: HO mice, 30 g/l in drinking water ad libitum, one week. The procedure:
as §1, §2

A further data set has as its system MAT1A. The experiment in a line: Western blotting of hepatic MAT1A expression. It counts as in vivo, mouse. Particulars: HO HCU mice, 30 g/l in drinking water ad libitum, one week. The procedure: as §1
These observations are the first to report betaine and taurine acting to regulate expression of these processes. Therefore, this observation supports that taurine alone or in combination with betaine and other treatments for genetic homocystinuria are viable options for avoiding dietary restraints and treating these conditions.

The test system of the next data set is BHMT. Kind of data set: Hepatic BHMT protein during long-term betaine treatment. It counts as in vivo, mouse.
Data set [2] has as its system mouse model of MTR deficient homocystinuria. Kind of data set: tHcy in mouse model of MTR deficient homocystinuria. The class given is in vivo. Particulars: betaine supplementation. The source says: In the following exemplary experiments, it was observed that betaine supplementation was limited as observed in a mouse model of MTR deficient homocystinuria. As noted in FIG. 1, homocystinuria can occur due to defects in the Hcy remethylation enzymes MTR or MTHFR. It was observed that supplementation of betaine in certain experiments with a mouse model of MTR deficient homocystinuria lead to reduction of tHcy of approximately 25% having little effect on the condition. This modest decrease in betaine mediated treatment of MTR deficient homocystinuria has also been observed in human patients with this form of homocystinuria.

Data set [3] has as its system HO HCU mice. The experiment in a line: Tail bleeding time / hypercoagulative phenotype in HO HCU mice. The class given is in vivo, mouse. How it is done: In another exemplary method, effect of polyamines (e.g. spermidine and spermine) on the hypercoagulative phenotype induced by HCU was assessed which is a measure of treatment for genetic HCU where rapid coagulation is a side effect of these conditions. In brief, mice containing both the human CBS transgene and no functional copy of the mouse equivalent gene were identified by PCR from the litters of progeny of 11181×MKO^+/− F1 mice backcrossed to MKO^+/− mice. These mice were designated as “human only” (HO) mice and used as a human model of HCU. […] In order to further investigate the possible therapeutic potential of polyamine (e.g. spermidine and spermine) therapy in HCU, WT and HO HCU mice were given either: […]; […] in drinking water given ad libitum; or drinking water (untreated, control). After one week, tail bleeding times were determined for untreated wild type (WT) control B6 mice and HO HCU mice from all treatment groups.

The conditions of data set [4]: mouse, in vivo. The procedure: In another exemplary method, the transsulfuration pathway and methionine-folate cycle pathways, as show in the sematic illustrated in FIG. 18A, were assessed. In brief, three experimental groups (n=8 for each group) of male mice consisting of either untreated WT controls or HO HCU mice in the presence or absence of betaine treatment. Betaine was administered by dissolving the compound in drinking water at 30 g/l and was supplied ad libitum to the mice for one week. Treatment water was replenished twice per week.
as §1, with “Betaine and taurine were in this example, both administered by dissolving these compounds in drinking water at 30 g/l (2% or 3% w/v) and were supplied ad libitum for one week. Treatment water was replenished twice per week.” left out

In data set [5] the test system is HO HCU mice. Particulars: earlier study, cited from earlier work.
[6] abbreviates: HO HCU mice, one week of betaine treatment.

Entries after “also recorded” stand apart in the source; their conditions may differ.

Regarding `C[N+](C)(C)CC(=O)O` [betaine, N,N,N-trimethylglycine], in the data set with HO HCU mice [1] (setting [6]), the “HCU-induced decrease in hepatic N-acetylcysteine” value is recorded as “reversed”, the “HCU-induced decrease in hepatic cysteine” value is on record as “reversed”, the “hepatic N-acetylserine” value was “Neither of these metabolites were significantly altered” and the “hepatic SAH” value is listed as “did not change significantly”. Besides, in the data set on HO HCU mice [1] (setting [6]), the “hepatic SAM” value is “did not change significantly”, the “hepatic methionine compared to untreated HO mice” value is given as “no detectable effect”, the hepatic serine entry is given as “Neither of these metabolites were significantly altered” and the “increase of hepatic DMG” value lay within 3 to 4 fold. Besides, in the data set with HO HCU mice [1] (setting [6]), the “increase of hepatic MG” value lay in the range of 3 to 4 fold, the “lowering of hepatic N-acetlymethionine compared to untreated HO HCU mice” value came out at 23% and the “lowering of hepatic tHcy” value was “approximately 20%”. The “reduction of hepatic 5-MeTHF” value in the data set on HO HCU mice [1] (HO mice, betaine 2% w/v in drinking water ad libitum) was 15-25%. Also, the “HCU-mediated induction of hepatic SAHH expression” value in the data set with SAHH is given as “completely reversed”. For the same molecule, the “HCU-induced repression of hepatic SHMT2” value in the data set on SHMT2 is “completely reversed”. In addition, the “hepatic MAT1a expression” value with MAT1A is recorded as “induced expression”. Besides, the BHMT protein levels result in the data set with BHMT is given as “significantly higher levels of BHMT protein”. Moreover, in the data set on BHMT (approximately 2% without), the “BHMT as share of total hepatic protein” value was 8-10%. Further, in data set [2], the “reduction of tHcy” value is given as “approximately 25%”. Moreover, the hypercoagulative phenotype entry in the data set on HO HCU mice [3] (betaine treatment (one week)) is recorded as “significant amelioration of the hypercoagulative phenotype; also recorded: responded to betaine treatment”. In addition, the coagulation phenotype result in the data set on HO HCU mice [3] (prolonged betaine treatment) is “reversion to a hypercoagulative phenotype”. The tolerability of doses result in [4] is given as “well tolerated”. In addition, in the data set with HO HCU mice [5] (HCU mice, longer period of betaine treatment), the “total homocysteine levels after a longer period of treatment” value is “greater than 100 μM”. Moreover, the plasma homocysteine result with HO HCU mice [5] (mouse model of HCU, betaine treatment) is “below 100 μM”.

Values taken from patent US12702654B2, “Compositions and methods for treating homocystinuria and other conditions using polyamines” (THE REGENTS OF THE UNIVERSITY OF COLORADO, priority 2020, dated 2026).
